Read-outs that look alike come from different tables or passages of the source. Where a SMILES comes first, the peptide text is derived from it. [ ]: non-standard residue; d: D form. Cha = N[C@@H](CC1CCCCC1)C(=O)O; Cit = NC(=O)NCCC[C@H](N)C(=O)O; Nle = CCCC[C@H](N)C(=O)O; Aib = CC(C)(N)C(=O)O
Experiments:
[1] = Ammonium sulphate (AMS) precipitation relative solubility assay (18 A variants); assay type: physicochemical
Protocol: Relative solubility was measured using a recently developed PEG precipitation assay. For all PYY variants the standard assay worked well, and no changes had to be implemented (Fig. 2a). […] Moreover, to ensure that the results stemming from the AMS assay are consistent and reliable, we performed the 18 A experiments twice independently on different days. The results confirmed that they are indeed replicable, and we were therefore confident to use them for the validation of our approach (Supplementary Fig. 3). […] Even at final concentrations of 0.33 mg/mL (instead of 1 mg/mL) most variants remained insoluble. We used ultracentrifugation to determine the relative solubilities of the GLP-1 variants (Table 3). To confirm the reliability of this method we replicated the results on a different day with the same stock solutions (Supplementary Fig. 4).
Aliquots of 1 mg were prepared from the purified and lyophilised stocks. […] Briefly, a precipitant is titrated in increasing concentration to a fixed concentration of protein to induce precipitation of the protein. The samples are incubated for 48 h at 4° after mixing. The samples are centrifuged and the remaining protein concentration is measured in the supernatant using a plate reader. PYY and 18 A variants were dissolved in 10 mM citrate 10 mM phosphate buffer at pH 7 for a final concentration of 3 mg/mL. The assay was run with 50% 6000 PEG for PYY and with 3.8 M AMS for 18 A. To improve throughput, a multichannel robot was employed to measure several peptides at once with the workflow being kept the same as described previously. […] 120 µL of each sample were centrifuged using an OptimaTLX Ultracentrifuge and spinning for 30 min at 500,000 g at 4 °C. The supernatant was removed, and the peptide concentration was measured using a NanoDrop.

[2] = cited from earlier work
[3] = 18A variants, precipitation midpoint, second run, Figure S3

| Compound | PEG1/2 ([1]; 18A variants, Figure 3b) | Second Run [1, 3] | further results |
| --- | --- | --- | --- |
| CC(=O)N[C@@H](CC(=O)O)C(=O)N[C@@H](Cc1c[nH]c2ccccc12)C(=O)N[C@@H](Cc1ccccc1)C(=O)N[C@@H](CCCCN)C(=O)N[C@@H](C)C(=O)N[C@@H](Cc1ccccc1)C(=O)N[C@@H](Cc1ccc(O)cc1)C(=O)N[C@@H](CC(=O)O)C(=O)N[C@@H](CCCCN)C(=O)N[C@H](C(=O)NC(C)(C)C(=O)N[C@@H](CCC(=O)O)C(=O)N[C@@H](CCCCN)C(=O)N[C@@H](Cc1ccccc1)C(=O)N[C@@H](CCCCN)C(=O)N[C@@H](CCC(=O)O)C(=O)N[C@@H](C)C(=O)N[C@@H](Cc1ccccc1)C(N)=O)C(C)C [Compound 15] (Ac-DWFKAFYDKV[Aib]EKFKEAF-NH2) | 1.783 | 1.487 |  |
| CCCC[C@H](NC(=O)[C@H](CCC(=O)O)NC(=O)[C@H](CCCCN)NC(=O)[C@H](Cc1ccccc1)NC(=O)[C@H](CCCCN)NC(=O)[C@H](CCC(=O)O)NC(=O)[C@H](C)NC(=O)[C@@H](NC(=O)[C@H](CCCCN)NC(=O)[C@H](CC(=O)O)NC(=O)[C@H](Cc1ccc(O)cc1)NC(=O)[C@H](Cc1ccccc1)NC(=O)[C@H](CC1CCCCC1)NC(=O)[C@H](CCCCN)NC(=O)[C@H](Cc1ccccc1)NC(=O)[C@H](Cc1c[nH]c2ccccc12)NC(=O)[C@H](CC(=O)O)NC(C)=O)C(C)C)C(=O)N[C@@H](Cc1ccccc1)C(N)=O [Cha, Nle] (Ac-DWFK[Cha]FYDKVAEKFKE[Nle]F-NH2) | 0 | 0 |  |
| PYY: gut hormone with a length of 36 amino acids |  |  | half-life [2]: approximately 10 minutes |
| CC(=O)N[C@@H](CC(=O)O)C(=O)N[C@@H](Cc1c[nH]c2ccccc12)C(=O)N[C@@H](CC1CCCCC1)C(=O)N[C@@H](CCCCN)C(=O)N[C@@H](C)C(=O)N[C@@H](Cc1ccccc1)C(=O)N[C@@H](Cc1ccc(O)cc1)C(=O)N[C@@H](CC(=O)O)C(=O)N[C@@H](CCCCN)C(=O)N[C@H](C(=O)N[C@@H](CC1CCCCC1)C(=O)N[C@@H](CCC(=O)O)C(=O)N[C@@H](CCCCN)C(=O)N[C@@H](Cc1ccccc1)C(=O)N[C@@H](CCCCN)C(=O)N[C@@H](CCC(=O)O)C(=O)N[C@@H](C)C(=O)N[C@@H](Cc1ccccc1)C(N)=O)C(C)C [Cha, Cha] (Ac-DW[Cha]KAFYDKV[Cha]EKFKEAF-NH2) | 0 | 0 |  |
| CCCC[C@H](NC(=O)[C@H](CCCCN)NC(=O)[C@H](CCC(=O)O)NC(=O)[C@H](C)NC(=O)[C@@H](NC(=O)[C@H](CCCCN)NC(=O)[C@H](CC(=O)O)NC(=O)[C@H](Cc1ccc(O)cc1)NC(=O)[C@H](Cc1ccccc1)NC(=O)[C@H](C)NC(=O)[C@H](CCCCN)NC(=O)[C@H](CCCCNC(C)=O)NC(=O)[C@H](Cc1c[nH]c2ccccc12)NC(=O)[C@H](CC(=O)O)NC(C)=O)C(C)C)C(=O)N[C@@H](CCCCN)C(=O)N[C@@H](CCC(=O)O)C(=O)N[C@@H](C)C(=O)N[C@@H](Cc1ccccc1)C(N)=O [Nac, Nle] (Ac-DWK(Ac)KAFYDKVAEK[Nle]KEAF-NH2) | 2.52 | 1.409 |  |
| CCCC[C@H](NC(=O)[C@H](CCC(=O)O)NC(=O)[C@H](CCCCN)NC(=O)[C@H](Cc1ccccc1)NC(=O)[C@H](CCCCN)NC(=O)[C@H](CCC(=O)O)NC(=O)[C@H](C)NC(=O)[C@@H](NC(=O)[C@H](CCCCN)NC(=O)[C@H](CC(=O)O)NC(=O)[C@H](Cc1ccc(O)cc1)NC(=O)[C@H](Cc1ccccc1)NC(=O)[C@H](CC1CCCCC1)NC(=O)[C@H](CCCCN)NC(=O)[C@H](Cc1ccccc1)NC(=O)[C@H](Cc1c[nH]c2ccccc12)NC(=O)[C@H](CC(=O)O)NC(C)=O)C(C)C)C(=O)N[C@@H](Cc1ccccc1)C(N)=O [Compound 18] (Ac-DWFK[Cha]FYDKVAEKFKE[Nle]F-NH2) |  |  | solubility of 18 A variants (in words) ([1]; 18 A variants, pH 7): completely insoluble |
| CC(=O)N[C@@H](CC(=O)O)C(=O)N[C@@H](Cc1c[nH]c2ccccc12)C(=O)N[C@@H](Cc1ccccc1)C(=O)N[C@@H](CCCCN)C(=O)N[C@@H](C)C(=O)N[C@@H](Cc1ccccc1)C(=O)N[C@@H](Cc1ccc(O)cc1)C(=O)N[C@@H](CC(=O)O)C(=O)N[C@@H](CCCCN)C(=O)N[C@H](C(=O)N[C@@H](CCCNC(N)=O)C(=O)N[C@@H](CCC(=O)O)C(=O)N[C@@H](CCCCN)C(=O)N[C@@H](Cc1ccccc1)C(=O)N[C@@H](CCCCN)C(=O)N[C@@H](CCC(=O)O)C(=O)N[C@@H](C)C(=O)N[C@@H](Cc1ccccc1)C(N)=O)C(C)C [Compound 16] (Ac-DWFKAFYDKV[Cit]EKFKEAF-NH2) | 1.901 | 1.251 |  |
| CC(=O)N[C@@H](CC(=O)O)C(=O)N[C@@H](Cc1c[nH]c2ccccc12)C(=O)N[C@@H](Cc1ccccc1)C(=O)N[C@@H](CCCCN)C(=O)N[C@@H](C)C(=O)N[C@@H](Cc1ccccc1)C(=O)N[C@@H](Cc1ccc(O)cc1)C(=O)N[C@@H](CC(=O)O)C(=O)N[C@@H](CCCCN)C(=O)N[C@H](C(=O)N[C@@H](C)C(=O)N[C@@H](CCC(=O)O)C(=O)N[C@@H](CCCCN)C(=O)N[C@@H](Cc1ccccc1)C(=O)N[C@@H](CCCCN)C(=O)N[C@@H](CCC(=O)O)C(=O)N[C@@H](C)C(=O)N[C@@H](Cc1ccccc1)C(N)=O)C(C)C [Compound 11, reference compound] (Ac-DWFKAFYDKVAEKFKEAF-NH2) |  |  | PEG1/2 [1]: 1.626; Second Run [1]: 1.058 |

Reference: PMC10656490, “Sequence-based prediction of the intrinsic solubility of peptides containing non-natural amino acids” (Nature Communications, 2023)
